Reference: patent publication US10550142B2, “Quercetin-based compound” (AMOREPACIFIC CORPORATION, priority 2016, dated 2020)

Test system: skin
Assay: Cumulative skin irritation test, HRIPT (human repeated insult patch test)
Format: in vivo
Design: key to skin reactivity (ICDRG criteria): −: Negative (no reaction); ±: Suspicious or slight erythema, etc.; +: Weak reaction (not accompanied by vesicles), erythema, papules; ++: Severe reaction (accompanied by vesicles), erythema, papules, vesicles; +++: Strong reaction, bullae
Conditions: for Number of subjects showing ±, + or ++ reactivity 1st: 1st patch; for Number of subjects showing ±, + or ++ reactivity 2nd: 2nd patch; for Number of subjects showing ±, + or ++ reactivity 3rd: 3rd patch; for Number of subjects showing ±, + or ++ reactivity 4th: 4th patch; for Number of subjects showing ±, + or ++ reactivity 5th: 5th patch; for Number of subjects showing ±, + or ++ reactivity 6th: 6th patch; for Number of subjects showing ±, + or ++ reactivity 7th: 7th patch; for Number of subjects showing ±, + or ++ reactivity 8th: 8th patch; for Number of subjects showing ±, + or ++ reactivity 9th: 9th patch; for Average reactivity: less than 3 = safe
Procedure: HRIPT (human repeated insult patch test) was performed to evaluate the cumulative skin irritation of quercetin 3-O-[3-O″-(E)-p-coumaroyl][β-D-glucopyranosyl-(1→3)-O-α-L-rhamnopyranosyl-(1→6)-O-β-D-glucopyranoside] and quercetin 3-O-[3-O″-(E)-p-coumaroyl][α-L-rhamnopyranosyl-(1→6)-O-β-D-glucopyranoside] and determine the range of concentration applicable to the skin. Specifically, 15 healthy adult subjects were randomly selected, and 20 μl of a test composition (composition for the skin including an emulsifier, a stabilizer, purified water, etc. in addition to each of the above compounds) containing 0.5% by weight, 1% by weight or 3% by weight of each of the compounds was dropped into each chamber (IQ chamber, Epitest Ltd, Finland) The patch was applied to the upper right side of the back of the subject, and after 24 hours from the application, it was replaced with a new patch. In this way, a total of 9 patches were applied, 3 times a week for 3 weeks. The skin reaction was checked before and after application of each patch. The skin reaction was checked until after 48 hours from the removal of the final patch, and the average reactivity was calculated. The skin reaction was evaluated according to the criteria of the International Contact Dermatitis Research Group (ICDRG). In the above table, “novel substance 31” denotes quercetin 3-O-[3-O″-(E)-p-coumaroyl][β-D-glucopyranosyl-(1→3)-O-α-L-rhamnopyranosyl-(1→6)-O-β-D-glucopyranoside], and “novel substance 32” denotes quercetin 3-O-[3-O″-(E)-p-coumaroyl][α-L-rhamnopyranosyl-(1→6)-O-β-D-glucopyranoside.

[1] = 0.5% by weight, line 1 of 3 (±)
[2] = 0.5% by weight, line 2 of 3 (+)
[3] = 0.5% by weight, line 3 of 3 (++)

CC1OC(OCC2OC(Oc3c(-c4ccc(O)c(O)c4)oc4cc(O)cc(O)c4c3=O)C(O)C(OC(=O)/C=C/c3ccc(O)cc3)C2O)C(O)C(O)C1O [Novel substance 32, quercetin 3-O-[3-O″-(E)-p-coumaroyl][α-L-rhamnopyranosyl-(1→6)-O-β-D-glucopyranoside]]
0 number of persons: Number of subjects showing ±, + or ++ reactivity 1st [1] | Number of subjects showing ±, + or ++ reactivity 1st [2] | Number of subjects showing ±, + or ++ reactivity 1st [3] | Number of subjects showing ±, + or ++ reactivity 2nd [1] | Number of subjects showing ±, + or ++ reactivity 2nd [2] | Number of subjects showing ±, + or ++ reactivity 2nd [3] | Number of subjects showing ±, + or ++ reactivity 3rd [1] | Number of subjects showing ±, + or ++ reactivity 3rd [2] | Number of subjects showing ±, + or ++ reactivity 3rd [3] | Number of subjects showing ±, + or ++ reactivity 4th [1] | Number of subjects showing ±, + or ++ reactivity 4th [2] | Number of subjects showing ±, + or ++ reactivity 4th [3] | Number of subjects showing ±, + or ++ reactivity 5th [1] | Number of subjects showing ±, + or ++ reactivity 5th [2] | Number of subjects showing ±, + or ++ reactivity 5th [3] | Number of subjects showing ±, + or ++ reactivity 6th [1] | Number of subjects showing ±, + or ++ reactivity 6th [2] | Number of subjects showing ±, + or ++ reactivity 6th [3] | Number of subjects showing ±, + or ++ reactivity 7th [1] | Number of subjects showing ±, + or ++ reactivity 7th [2] | Number of subjects showing ±, + or ++ reactivity 7th [3] | Number of subjects showing ±, + or ++ reactivity 8th [1] | Number of subjects showing ±, + or ++ reactivity 8th [2] | Number of subjects showing ±, + or ++ reactivity 8th [3] | Number of subjects showing ±, + or ++ reactivity 9th [1] | Number of subjects showing ±, + or ++ reactivity 9th [2] | Number of subjects showing ±, + or ++ reactivity 9th [3] | Number of subjects showing ±, + or ++ reactivity 1st (1% by weight, line 1 of 3 (±)) | Number of subjects showing ±, + or ++ reactivity 1st (1% by weight, line 2 of 3 (+)) | Number of subjects showing ±, + or ++ reactivity 1st (1% by weight, line 3 of 3 (++)) | Number of subjects showing ±, + or ++ reactivity 2nd (1% by weight, line 1 of 3 (±)) | Number of subjects showing ±, + or ++ reactivity 2nd (1% by weight, line 2 of 3 (+)) | Number of subjects showing ±, + or ++ reactivity 2nd (1% by weight, line 3 of 3 (++)) | Number of subjects showing ±, + or ++ reactivity 3rd (1% by weight, line 1 of 3 (±)) | Number of subjects showing ±, + or ++ reactivity 3rd (1% by weight, line 2 of 3 (+)) | Number of subjects showing ±, + or ++ reactivity 3rd (1% by weight, line 3 of 3 (++)) | Number of subjects showing ±, + or ++ reactivity 4th (1% by weight, line 1 of 3 (±)) | Number of subjects showing ±, + or ++ reactivity 4th (1% by weight, line 2 of 3 (+)) | Number of subjects showing ±, + or ++ reactivity 4th (1% by weight, line 3 of 3 (++)) | Number of subjects showing ±, + or ++ reactivity 5th (1% by weight, line 1 of 3 (±)) | Number of subjects showing ±, + or ++ reactivity 5th (1% by weight, line 2 of 3 (+)) | Number of subjects showing ±, + or ++ reactivity 5th (1% by weight, line 3 of 3 (++)) | Number of subjects showing ±, + or ++ reactivity 6th (1% by weight, line 1 of 3 (±)) | Number of subjects showing ±, + or ++ reactivity 6th (1% by weight, line 2 of 3 (+)) | Number of subjects showing ±, + or ++ reactivity 6th (1% by weight, line 3 of 3 (++)) | Number of subjects showing ±, + or ++ reactivity 7th (1% by weight, line 1 of 3 (±)) | Number of subjects showing ±, + or ++ reactivity 7th (1% by weight, line 2 of 3 (+)) | Number of subjects showing ±, + or ++ reactivity 7th (1% by weight, line 3 of 3 (++)) | Number of subjects showing ±, + or ++ reactivity 8th (1% by weight, line 1 of 3 (±)) | Number of subjects showing ±, + or ++ reactivity 8th (1% by weight, line 2 of 3 (+)) | Number of subjects showing ±, + or ++ reactivity 8th (1% by weight, line 3 of 3 (++)) | Number of subjects showing ±, + or ++ reactivity 9th (1% by weight, line 1 of 3 (±)) | Number of subjects showing ±, + or ++ reactivity 9th (1% by weight, line 2 of 3 (+)) | Number of subjects showing ±, + or ++ reactivity 9th (1% by weight, line 3 of 3 (++)) | Number of subjects showing ±, + or ++ reactivity 1st (3% by weight, line 1 of 3 (±)) | Number of subjects showing ±, + or ++ reactivity 1st (3% by weight, line 2 of 3 (+)) | Number of subjects showing ±, + or ++ reactivity 1st (3% by weight, line 3 of 3 (++)) | Number of subjects showing ±, + or ++ reactivity 2nd (3% by weight, line 1 of 3 (±)) | Number of subjects showing ±, + or ++ reactivity 2nd (3% by weight, line 2 of 3 (+)) | Number of subjects showing ±, + or ++ reactivity 2nd (3% by weight, line 3 of 3 (++)) | Number of subjects showing ±, + or ++ reactivity 3rd (3% by weight, line 1 of 3 (±)) | Number of subjects showing ±, + or ++ reactivity 3rd (3% by weight, line 2 of 3 (+)) | Number of subjects showing ±, + or ++ reactivity 3rd (3% by weight, line 3 of 3 (++)) | Number of subjects showing ±, + or ++ reactivity 4th (3% by weight, line 1 of 3 (±)) | Number of subjects showing ±, + or ++ reactivity 4th (3% by weight, line 2 of 3 (+)) | Number of subjects showing ±, + or ++ reactivity 4th (3% by weight, line 3 of 3 (++)) | Number of subjects showing ±, + or ++ reactivity 5th (3% by weight, line 1 of 3 (±)) | Number of subjects showing ±, + or ++ reactivity 5th (3% by weight, line 2 of 3 (+)) | Number of subjects showing ±, + or ++ reactivity 5th (3% by weight, line 3 of 3 (++)) | Number of subjects showing ±, + or ++ reactivity 6th (3% by weight, line 1 of 3 (±)) | Number of subjects showing ±, + or ++ reactivity 6th (3% by weight, line 2 of 3 (+)) | Number of subjects showing ±, + or ++ reactivity 6th (3% by weight, line 3 of 3 (++)) | Number of subjects showing ±, + or ++ reactivity 7th (3% by weight, line 1 of 3 (±)) | Number of subjects showing ±, + or ++ reactivity 7th (3% by weight, line 2 of 3 (+)) | Number of subjects showing ±, + or ++ reactivity 7th (3% by weight, line 3 of 3 (++)) | Number of subjects showing ±, + or ++ reactivity 8th (3% by weight, line 1 of 3 (±)) | Number of subjects showing ±, + or ++ reactivity 8th (3% by weight, line 2 of 3 (+)) | Number of subjects showing ±, + or ++ reactivity 8th (3% by weight, line 3 of 3 (++)) | Number of subjects showing ±, + or ++ reactivity 9th (3% by weight, line 1 of 3 (±)) | Number of subjects showing ±, + or ++ reactivity 9th (3% by weight, line 2 of 3 (+)) | Number of subjects showing ±, + or ++ reactivity 9th (3% by weight, line 3 of 3 (++))
−: skin reactivity (ICDRG criteria) (within the content range 0.5, 1, 3% by weight, 9 patches, 15 subjects)
0: Average reactivity (0.5% by weight) | Average reactivity (1% by weight) | Average reactivity (3% by weight)
